Tested on: C. albicans biofilms
Experiment: Susceptibility testing of preformed C. albicans biofilms in CaBChip (FUN 1 fluorescence)
Assay type: cell-based, Candida albicans strain SC5314
Conditions: 24 h preformed biofilms on CaBChip, 24 h drug exposure; for SMIC50 / SMIC80: FUN 1 staining
Protocol: A four-factor, two-level factorial design was performed using MINITAB (Minitab Solutions Inc., State College, Pa.) and DESIGN EXPERT (Stat-Ease Inc., Minneapolis, Minn.) software to obtain optimal conditions of media concentration, seeding density, collagen concentration and PSMA coating concentration for wash-resistant biofilm growth on the CaBChip. The response (output) metrics were true biofilm yield and robust attachment, measured using microarray scanner and light microscope. For preparation of inocula for printing and biofilm formation in the CaBChip, cells harvested from overnight YPD cultures were washed twice in sterile phosphate buffered saline (PBS; 10 mM phosphate buffer, 2.7 mM potassium chloride, 137 mM sodium chloride (pH 7.4) (Sigma) by centrifugation at 3000 g. The cells were then resuspended in Reconstruction buffer (0.2N NaOH solution with 2.2% (wt/vol) Sodium Bicarbonate and 4.8% (wt/vol) HEPES). One hundred fold dilutions of the suspended cells were prepared and counted using a hemocytometer on a bright field microscope. Following count, a suspension of cells was prepared in reconstruction buffer at a cell density of 5×10^7 cells/mL, which was diluted ten times by addition of 10×RPMI-1640 supplemented with L-glutamine and buffered with morpholinepropanesulfonic acid (Angus Buffers and Chemicals, Niagara Falls, N.Y.) containing collagen (1.8 mg/ml) (Type 1 from rat tail, BD Biosciences, Bedford, Mass.), to give a final concentration of cells of […]. The suspension containing yeast cells, collagen and media was printed (50 nL per spot) on the functionalized PSMA-coated glass slides using a microarray spotter (Omnigrid Micro, Digilab Inc., Holliston, Mass.). Printing was carried out by non-contact deposition using conically tapered 190μ orifice ceramic tips (Digilab). The resulting spots were approximately 700μ in diameter, spaced 1.2 mm apart; spots were printed in an array of 48 rows and 16 columns. In a standard print nm, the tips were primed, rinsed in running water and vacuum dried twice after each loading and printing step. The cell suspension was kept on ice to prevent the gelation of collagen before printing and agitated gently just prior to placement on the printing robot to ensure a uniformly mixed cell suspension. A relative humidity of 97% was maintained during printing to prevent the drying of the biofilm spots. All microarray operations such as aspiration, dispensing, priming, printing and spatial distribution of array were controlled by AxSys program (Digilab). All surfaces, including the source plate station, wash and vacuum station, vacuum slide platter and printing chamber were sterilized by wiping with 70% isopropanol. In our experience, these procedures ensure that there is no detectable contamination of wells in the plates or of spots on the microarray. After printing, the slides were placed inside humidifier chambers (Arraylt Corporation, Sunnyvale, Calif.), which were placed inside a 37 C incubator over different periods of time to allow for biofilm formation.
FUN 1 [2-chloro-4-(2,3-dihydro-3-methyl-(benzo-1,3-thiazol-2-yl)-methylidene)-1-phenylquinolinium iodide] (Invitrogen Corp., Carlsbad, Calif.) was used to stain and determine viability (levels of metabolic activity) of C. albicans cells within the biofilms formed in the chips. This membrane-permeable fluorescent dye is internalized and processed by metabolically active fungal cells, and has excitation and emission spectra that are compatible with the sets of lasers and filters installed in most microarray scanners. Briefly, the CaBChip was stained with 0.5 tM FUN 1, by simply dunking the entire CaBChip in a staining jar, and incubated in the dark at 37° C. for 30 min. Following incubation, the chip was washed three times by dunking in PBS in order to remove excess stain. The slides were then air-dried and scanned in a microarray scanner (Genepix Personal4100A, Axon Instruments, Union City, Calif.). […]

| calculated IC50 (FUN 1 fluorescence, Hill equation fit) [µg/mL] | Structure (SMILES) | susceptibility of biofilms formed on CaBChip (in words) | SMIC50 | SMIC80 | IC50 (Candida albicans, FUN 1 fluorescence, Hill equation fit, read-out: calculated IC50) [µg/mL] |
| --- | --- | --- | --- | --- | --- |
|  | OC(Cn1cncn1)(Cn1cncn1)c1ccc(F)cc1F [fluconazole] | intrinsically resistant to fluconazole | > 1,024 μg/ml | > 1,024 μg/ml | > 1020 |
| 0.27 ± 0.04 | C[C@@H]1[C@H](O)[C@@H](C)/C=C/C=C/C=C/C=C/C=C/C=C/C=C/[C@H](O[C@@H]2O[C@H](C)[C@@H](O)[C@H](N)[C@@H]2O)C[C@@H]2O[C@](O)(C[C@@H](O)C[C@@H](O)[C@H](O)CC[C@@H](O)C[C@@H](O)CC(=O)O[C@H]1C)C[C@H](O)[C@H]2C(=O)O [amphotericin B] | effective against biofilms formed on CaBChip, but only at relatively high concentrations | 0.5 µg/mL | 1 µg/mL |  |

From US10465227B2, “Microbial testing devices, methods of making microbial testing devices and methods of identifying novel antimicrobial drug candidates” (BOARD OF REGENTS, THE UNIVERSITY OF TEXAS SYSTEM, priority 2010, dated 2019)
